Experimental data: patent publication US11214803B2, “Modulators of YAP1 expression” (Ionis Pharmaceuticals, Inc., priority 2019, dated 2022)
Strand notation (5' to 3'): a small letter for the sugar, then the base; units joined by * are phosphorothioate-linked, units joined directly phosphodiester-linked; [ ] holds rarer units or linkages, { } end groups; capitals alone tell only the bases. k = constrained ethyl (cEt); [5mC] = 5-methylcytosine; d = 2'-deoxy (DNA)

Test system: Yap1 mRNA
Assay: Antisense inhibition of human Yap1 in A-431 cells by cEt gapmers, single dose (Example 2, RTS4814)
Type: cell-based
In short: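 Single-dose knockdown screen of 3-10-3 cEt phosphorothioate gapmers at 2,000 nM added by free uptake to A-431 cells. After roughly 48 h, RNA was isolated and Yap1 transcript measured by RT-qPCR, with results given as % UTC.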

[1] = Table 24, Yap1 mRNA as percent of untreated control, 3-10-3 cEt gapmers targeting SEQ ID NO.: 1, and 2
[2] = Table 25, Yap1 mRNA as percent of untreated control, 3-10-3 cEt gapmers targeting SEQ ID NO.: 1, and 2
[3] = Yap1 mRNA as percent of untreated control, A-431 cells, 3-10-3 cEt gapmers targeting SEQ ID NO.: 1, and 2, Table 30
[4] = Yap1 mRNA as percent of untreated control, A-431 cells, 3-10-3 cEt gapmers targeting SEQ ID NO.: 1, and 2, Table 31
[5] = Table 32, Yap1 mRNA, percent of untreated control, 3-10-3 cEt gapmers targeting SEQ ID NO.: 1, and 2
[6] = Table 33, Yap1 mRNA, percent of untreated control, 3-10-3 cEt gapmers targeting SEQ ID NO.: 1, and 2
[7] = Table 18, A-431 cells, 5,000 cells per well, free uptake, 2,000 nM modified oligonucleotide, approx. 48 hours, RTS4814, normalized to RIBOGREEN, Yap1 mRNA as percent of untreated control
[8] = Table 19, A-431 cells, 5,000 cells per well, free uptake, 2,000 nM modified oligonucleotide, approx. 48 hours, RTS4814, normalized to RIBOGREEN, Yap1 mRNA as percent of untreated control

With “1075914 (kA*kT*kT*dT*dA*dG*dG*dA*dT*dG*d[5mC]*d[5mC]*dT*kT*kT*kA; antisense) [Compound 1075914]” the “YAP1 (% UTC)” value [1] was 14 % UTC.
“1075915 (kA*kA*kT*dT*dT*dA*dG*dG*dA*dT*dG*d[5mC]*d[5mC]*kT*kT*kT; antisense) [Compound 1075915]” was tested, and the “YAP1 (% UTC)” value [2] was 16 % UTC.
“1075920 (antisense kA*kA*kA*dG*dA*dA*dA*dG*d[5mC]*dT*dG*d[5mC]*dG*k[5mC]*kA*k[5mC]) [compound 1075920]” was tested, and the “YAP1 (% UTC)” value [3] was 108 % UTC.
In the case of “1075921 (antisense kG*kA*kA*dA*dG*dA*dA*dA*dG*d[5mC]*dT*dG*d[5mC]*kG*k[5mC]*kA) [compound 1075921]”, the “YAP1 (% UTC)” value [4] is reported as 93 % UTC.
With “1075922 (antisense kG*k[5mC]*k[5mC]*d[5mC]*dA*dA*dA*dA*dT*dA*dG*dG*dA*kT*kA*k[5mC]) [compound 1075922]” the “YAP1 (% UTC)” value [5] was 60 % UTC.
In the case of “1075923 (antisense kT*kT*kT*dA*dA*dT*dA*d[5mC]*dT*d[5mC]*dT*d[5mC]*dT*kG*kG*kG) [compound 1075923]”, the “YAP1 (% UTC)” value [6] is reported as 42 % UTC.
For “1075940 (kA*k[5mC]*kT*d[5mC]*dA*dA*d[5mC]*dA*dA*d[5mC]*d[5mC]*d[5mC]*d[5mC]*kA*kA*kG; antisense) [Compound 1075940]”, the “YAP1 (% UTC)” value [7] was 54 % UTC.
“1075941 (kA*kG*kT*d[5mC]*dA*dA*dT*dA*dG*d[5mC]*dA*dA*dT*k[5mC]*kA*k[5mC]; antisense) [Compound 1075941]” was tested, and the “YAP1 (% UTC)” value [8] was 11 % UTC.
In the case of “1075942 (kT*kG*kA*d[5mC]*dT*dA*dT*dA*d[5mC]*dA*dT*dG*dG*kT*kG*kA; antisense) [Compound 1075942]”, the “YAP1 (% UTC)” value (Table 20, Yap1 mRNA, percent of untreated control, 3-10-3 cEt gapmers targeting SEQ ID NO.: 1 and 2) is reported as 46 % UTC.
In the case of “1075943 (kG*kT*kA*dT*dA*dT*d[5mC]*dA*dA*dA*d[5mC]*d[5mC]*dT*kT*kT*kT; antisense) [Compound 1075943]”, the “YAP1 (% UTC)” value (Table 21, Yap1 mRNA, percent of untreated control, 3-10-3 cEt gapmers targeting SEQ ID NO.: 1 and 2) is reported as 15 % UTC.
For “1075944 (kT*kA*kT*dT*dA*dG*dG*dA*dA*d[5mC]*dA*dG*dA*kT*k[5mC]*kA; antisense) [Compound 1075944]”, the “YAP1 (% UTC)” value (Table 22, Yap1 mRNA as percent of untreated control, 3-10-3 cEt gapmers, single dose) was 25 % UTC.
“1075945 (kG*kT*kA*dT*dT*dA*dG*dG*dA*dA*d[5mC]*dA*dG*kA*kT*k[5mC]; antisense) [Compound 1075945]” was tested, and the “YAP1 (% UTC)” value (Table 23, Yap1 mRNA as percent of untreated control, 3-10-3 cEt gapmers, single dose) was 11 % UTC.
With “1075946 (kG*k[5mC]*kT*dG*dA*dA*dT*dA*dA*dG*dT*dA*dA*k[5mC]*kT*kT; antisense) [Compound 1075946]” the “YAP1 (% UTC)” value [1] was 20 % UTC.
In the case of “1075947 (k[5mC]*kT*kT*dT*dA*dT*dA*dG*dG*dA*dA*dT*dA*kG*kA*kG; antisense) [Compound 1075947]”, the “YAP1 (% UTC)” value [2] is reported as 95 % UTC.
For “1075952 (antisense k[5mC]*kT*kA*dT*dA*dT*dA*d[5mC]*d[5mC]*dT*dG*d[5mC]*dT*kT*k[5mC]*kT) [compound 1075952]”, the “YAP1 (% UTC)” value [3] was 41 % UTC.
For “1075953 (kA*kA*k[5mC]*d[5mC]*dT*dA*dT*dA*dT*dA*d[5mC]*d[5mC]*dT*kG*k[5mC]*kT; antisense) [compound 1075953]”, the “YAP1 (% UTC)” value [4] was 36 % UTC.
For “1075954 (kA*kT*kT*dT*dA*dA*dG*dG*d[5mC]*dT*dG*dT*dG*kT*kT*k[5mC]; antisense) [compound 1075954]”, the “YAP1 (% UTC)” value [5] was 50 % UTC.
In the case of “1075955 (kG*kA*k[5mC]*d[5mC]*dT*dA*dT*dA*dA*dT*dA*d[5mC]*dA*kG*kA*kA; antisense) [compound 1075955]”, the “YAP1 (% UTC)” value [6] is reported as 85 % UTC.
For “1075972 (kT*k[5mC]*kA*d[5mC]*dA*dA*dG*dG*dG*d[5mC]*dT*dA*dA*kT*kT*k[5mC]; antisense) [Compound 1075972]”, the “YAP1 (% UTC)” value [7] was 22 % UTC.
“1075973 (k[5mC]*k[5mC]*kG*d[5mC]*dA*dA*d[5mC]*dA*d[5mC]*d[5mC]*dA*dT*dT*k[5mC]*kT*kT; antisense) [Compound 1075973]” was tested, and the “YAP1 (% UTC)” value [8] was 8 % UTC.
